# pIC50, pKi: −log10 of the molar value.
# What was measured:
# [1] = Inhibition of bovine beta-1,4-GalT using alpha-Fucp-(1-2)-beta-Galp-O-(CH2)7-CH3 as acceptor and UDP-Gal as substrate by radiochemical assay; set-up: species or system Bos taurus
# [2] = Inhibition of beta-1,4-GalT (unknown origin); set-up: species or system Homo sapiens
# [3] = target: Ceramide glucosyltransferase (Homo sapiens, UniProt Q16739); assay: Inhibition of glucosylceramide synthase (unknown origin)
# [4] = target: T1, Alpha-(1,3)-fucosyltransferase 7 (Homo sapiens, UniProt Q11130); assay: Inhibition of FucT-7 (unknown origin)
# T1 sequence (Q11130 whole entry): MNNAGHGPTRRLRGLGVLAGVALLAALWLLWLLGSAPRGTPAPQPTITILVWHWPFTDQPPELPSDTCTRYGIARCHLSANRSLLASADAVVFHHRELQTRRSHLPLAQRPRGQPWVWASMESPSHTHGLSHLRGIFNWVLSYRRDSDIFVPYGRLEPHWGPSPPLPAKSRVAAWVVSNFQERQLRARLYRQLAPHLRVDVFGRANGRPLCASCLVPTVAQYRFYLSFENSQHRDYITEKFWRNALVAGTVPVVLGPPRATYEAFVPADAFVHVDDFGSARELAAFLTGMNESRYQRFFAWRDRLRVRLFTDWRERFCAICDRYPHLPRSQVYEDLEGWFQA
# [5] = Inhibition of short OGT (unknown origin); set-up: species or system Homo sapiens
# [6] = target: UDP-N-acetylglucosamine--peptide N-acetylglucosaminyltransferase 110 kDa subunit (Homo sapiens, UniProt O15294); assay: Inhibition of nucleocytoplasmic OGT (unknown origin)
# UDP-N-acetylglucosamine--peptide N-acetylglucosaminyltransferase 110 kDa subunit, sequence (O15294 whole entry): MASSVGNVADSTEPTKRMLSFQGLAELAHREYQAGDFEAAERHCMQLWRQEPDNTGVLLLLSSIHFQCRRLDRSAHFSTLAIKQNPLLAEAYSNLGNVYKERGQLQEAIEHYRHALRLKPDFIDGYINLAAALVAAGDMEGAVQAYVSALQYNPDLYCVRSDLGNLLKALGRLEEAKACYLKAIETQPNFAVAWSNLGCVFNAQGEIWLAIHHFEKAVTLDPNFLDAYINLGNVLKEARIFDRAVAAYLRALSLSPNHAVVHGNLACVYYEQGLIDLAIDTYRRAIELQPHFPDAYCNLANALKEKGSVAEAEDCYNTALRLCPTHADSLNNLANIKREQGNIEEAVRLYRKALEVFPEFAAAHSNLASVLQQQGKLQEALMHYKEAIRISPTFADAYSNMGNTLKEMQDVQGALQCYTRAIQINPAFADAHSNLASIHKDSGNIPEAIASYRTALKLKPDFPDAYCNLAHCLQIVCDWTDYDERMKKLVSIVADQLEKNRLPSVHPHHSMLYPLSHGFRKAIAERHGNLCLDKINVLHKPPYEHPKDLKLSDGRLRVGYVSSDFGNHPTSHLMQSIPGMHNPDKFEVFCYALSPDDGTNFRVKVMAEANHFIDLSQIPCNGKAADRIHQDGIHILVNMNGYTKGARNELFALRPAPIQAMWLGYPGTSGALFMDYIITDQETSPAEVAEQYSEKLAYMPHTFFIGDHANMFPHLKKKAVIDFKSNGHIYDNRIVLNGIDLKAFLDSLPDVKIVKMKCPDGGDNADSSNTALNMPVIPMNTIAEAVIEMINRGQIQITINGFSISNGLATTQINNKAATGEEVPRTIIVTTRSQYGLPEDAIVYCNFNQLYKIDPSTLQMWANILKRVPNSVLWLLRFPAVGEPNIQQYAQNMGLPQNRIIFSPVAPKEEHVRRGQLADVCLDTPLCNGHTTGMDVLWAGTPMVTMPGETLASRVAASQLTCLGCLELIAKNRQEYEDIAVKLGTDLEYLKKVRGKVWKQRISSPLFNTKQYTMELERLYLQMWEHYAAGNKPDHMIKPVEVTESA
# [7] = target: Alpha-(1,6)-fucosyltransferase (Homo sapiens, UniProt Q9BYC5); assay: Inhibition of FucT-8 in human blood platelets
# Alpha-(1,6)-fucosyltransferase, sequence (Q9BYC5 whole entry): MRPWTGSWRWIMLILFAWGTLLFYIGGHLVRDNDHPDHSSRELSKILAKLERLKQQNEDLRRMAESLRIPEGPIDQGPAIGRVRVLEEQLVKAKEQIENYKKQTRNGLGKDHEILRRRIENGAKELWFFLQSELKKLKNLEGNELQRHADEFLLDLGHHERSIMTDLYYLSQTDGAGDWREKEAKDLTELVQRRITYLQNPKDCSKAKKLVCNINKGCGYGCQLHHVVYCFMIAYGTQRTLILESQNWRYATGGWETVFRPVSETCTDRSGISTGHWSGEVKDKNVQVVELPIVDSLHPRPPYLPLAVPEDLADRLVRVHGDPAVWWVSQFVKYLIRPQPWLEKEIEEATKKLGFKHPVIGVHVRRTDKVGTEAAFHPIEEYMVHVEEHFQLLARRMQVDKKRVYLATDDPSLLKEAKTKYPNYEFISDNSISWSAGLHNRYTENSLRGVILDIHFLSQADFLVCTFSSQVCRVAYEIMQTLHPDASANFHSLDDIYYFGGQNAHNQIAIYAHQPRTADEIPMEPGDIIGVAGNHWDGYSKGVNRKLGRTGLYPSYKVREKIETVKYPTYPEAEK
# [8] = Inhibition of human beta-1,4-GalT
# [9] = target: T2, Beta-galactoside alpha-2,6-sialyltransferase 1 (Homo sapiens, UniProt P15907); assay: Inhibition of human ST6Gal1
# T2 sequence (P15907 whole entry): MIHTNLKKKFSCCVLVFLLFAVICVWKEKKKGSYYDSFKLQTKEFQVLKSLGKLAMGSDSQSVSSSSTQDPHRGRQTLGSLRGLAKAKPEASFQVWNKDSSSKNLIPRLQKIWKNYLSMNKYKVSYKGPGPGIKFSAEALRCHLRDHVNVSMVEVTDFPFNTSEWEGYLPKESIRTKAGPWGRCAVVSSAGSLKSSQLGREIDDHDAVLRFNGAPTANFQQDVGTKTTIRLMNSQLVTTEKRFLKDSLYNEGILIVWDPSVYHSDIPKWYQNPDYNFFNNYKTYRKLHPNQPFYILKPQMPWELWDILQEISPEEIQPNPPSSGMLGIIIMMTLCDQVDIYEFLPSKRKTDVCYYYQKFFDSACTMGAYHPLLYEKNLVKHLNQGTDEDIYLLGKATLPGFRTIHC
# [10] = target: Beta-galactoside alpha-2,6-sialyltransferase 1 (Rattus norvegicus, UniProt P13721); assay: Inhibition of rat ST6Gal1
# Beta-galactoside alpha-2,6-sialyltransferase 1 (Rattus norvegicus, UniProt P13721), sequence (P13721 whole entry): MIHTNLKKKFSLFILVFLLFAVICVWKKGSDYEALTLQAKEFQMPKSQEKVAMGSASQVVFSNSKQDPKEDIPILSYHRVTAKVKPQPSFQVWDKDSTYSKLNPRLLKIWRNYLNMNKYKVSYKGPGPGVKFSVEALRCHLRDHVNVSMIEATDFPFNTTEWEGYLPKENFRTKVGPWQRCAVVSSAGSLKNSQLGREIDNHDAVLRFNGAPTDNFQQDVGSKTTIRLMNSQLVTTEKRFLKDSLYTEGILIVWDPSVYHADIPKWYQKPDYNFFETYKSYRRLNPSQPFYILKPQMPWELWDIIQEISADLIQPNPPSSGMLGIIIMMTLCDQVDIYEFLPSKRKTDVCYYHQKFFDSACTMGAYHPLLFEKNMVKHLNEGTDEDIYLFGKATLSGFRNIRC
# [11] = Inhibition of candida albicans beta-(1,3)-glucan synthase assessed as decrease in transfer of radiolabelled glucose from UDP-[3H]-glucose onto acceptor
# [12] = test system: Candida albicans; assay: Antifungal activity against Candida albicans; format: functional
# [13] = target: UDP-N-acetylglucosamine--N-acetylmuramyl-(pentapeptide) pyrophosphoryl-undecaprenol N-acetylglucosamine transferase (Escherichia coli (strain K12), UniProt P17443); assay: Inhibition of Escherichia coli MurG
# [14] = target: T3, UDP-N-acetylglucosamine--N-acetylmuramyl-(pentapeptide) pyrophosphoryl-undecaprenol N-acetylglucosamine transferase (Escherichia coli (strain K12)) (UniProt P17443); assay: Inhibition of Escherichia coli MurG at 2.5 microg/ml
# T3 sequence (whole entry): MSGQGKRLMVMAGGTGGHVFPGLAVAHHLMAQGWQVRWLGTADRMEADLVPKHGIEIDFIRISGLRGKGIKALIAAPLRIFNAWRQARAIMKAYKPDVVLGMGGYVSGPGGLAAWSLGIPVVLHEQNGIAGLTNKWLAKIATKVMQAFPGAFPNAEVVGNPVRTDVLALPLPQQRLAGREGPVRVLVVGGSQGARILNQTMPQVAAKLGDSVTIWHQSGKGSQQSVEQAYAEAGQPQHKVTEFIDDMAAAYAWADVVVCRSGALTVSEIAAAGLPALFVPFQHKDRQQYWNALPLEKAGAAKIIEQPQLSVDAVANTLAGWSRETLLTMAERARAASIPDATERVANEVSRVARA
# [15] = target: T4, CMP-N-acetylneuraminate-beta-galactosamide-alpha-2,3-sialyltransferase 1 (Homo sapiens, UniProt Q11201); assay: Inhibition of ST3Gal 1 (unknown origin)
# T4 sequence (Q11201 whole entry): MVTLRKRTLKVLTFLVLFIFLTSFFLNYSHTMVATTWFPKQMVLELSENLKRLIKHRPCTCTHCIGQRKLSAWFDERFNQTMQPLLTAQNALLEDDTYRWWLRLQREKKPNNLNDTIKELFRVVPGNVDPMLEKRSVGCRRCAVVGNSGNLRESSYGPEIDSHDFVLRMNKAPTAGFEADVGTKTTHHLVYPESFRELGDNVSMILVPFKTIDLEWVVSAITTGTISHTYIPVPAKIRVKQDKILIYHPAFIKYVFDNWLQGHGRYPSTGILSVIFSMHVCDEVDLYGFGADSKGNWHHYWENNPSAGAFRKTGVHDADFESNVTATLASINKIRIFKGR
# [16] = target: T5, 4-galactosyl-N-acetylglucosaminide 3-alpha-L-fucosyltransferase FUT5 (Homo sapiens, UniProt Q11128); assay: Inhibition of FucT-5 (unknown origin)
# T5 sequence (Q11128 whole entry): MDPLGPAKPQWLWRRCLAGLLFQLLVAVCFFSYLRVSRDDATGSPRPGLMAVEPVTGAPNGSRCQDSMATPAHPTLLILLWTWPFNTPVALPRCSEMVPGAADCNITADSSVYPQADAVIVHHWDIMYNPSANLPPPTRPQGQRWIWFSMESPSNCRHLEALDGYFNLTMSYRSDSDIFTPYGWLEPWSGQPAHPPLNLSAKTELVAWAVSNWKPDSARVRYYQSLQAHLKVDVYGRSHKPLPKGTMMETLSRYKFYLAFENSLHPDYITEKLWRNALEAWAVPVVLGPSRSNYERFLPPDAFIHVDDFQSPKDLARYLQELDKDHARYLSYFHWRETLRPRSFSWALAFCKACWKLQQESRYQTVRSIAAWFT
# [17] = target: T6, 4-galactosyl-N-acetylglucosaminide 3-alpha-L-fucosyltransferase FUT6 (Homo sapiens, UniProt P51993); assay: Inhibition of FucT-6 (unknown origin)
# T6 sequence (P51993 whole entry): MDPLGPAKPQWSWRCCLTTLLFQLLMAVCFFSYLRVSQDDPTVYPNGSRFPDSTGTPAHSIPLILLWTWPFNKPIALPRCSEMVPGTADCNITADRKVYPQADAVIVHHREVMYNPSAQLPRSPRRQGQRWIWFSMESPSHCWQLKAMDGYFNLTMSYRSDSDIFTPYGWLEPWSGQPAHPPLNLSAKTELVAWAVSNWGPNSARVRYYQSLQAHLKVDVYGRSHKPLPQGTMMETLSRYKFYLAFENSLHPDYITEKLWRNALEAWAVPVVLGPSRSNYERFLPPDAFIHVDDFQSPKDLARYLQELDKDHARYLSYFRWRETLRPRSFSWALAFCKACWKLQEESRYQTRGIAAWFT
# [18] = target: T7, CMP-N-acetylneuraminate-beta-1,4-galactoside alpha-2,3-sialyltransferase (Homo sapiens, UniProt Q11203); assay: Inhibition of ST3N (unknown origin)
# T7 sequence (Q11203 whole entry): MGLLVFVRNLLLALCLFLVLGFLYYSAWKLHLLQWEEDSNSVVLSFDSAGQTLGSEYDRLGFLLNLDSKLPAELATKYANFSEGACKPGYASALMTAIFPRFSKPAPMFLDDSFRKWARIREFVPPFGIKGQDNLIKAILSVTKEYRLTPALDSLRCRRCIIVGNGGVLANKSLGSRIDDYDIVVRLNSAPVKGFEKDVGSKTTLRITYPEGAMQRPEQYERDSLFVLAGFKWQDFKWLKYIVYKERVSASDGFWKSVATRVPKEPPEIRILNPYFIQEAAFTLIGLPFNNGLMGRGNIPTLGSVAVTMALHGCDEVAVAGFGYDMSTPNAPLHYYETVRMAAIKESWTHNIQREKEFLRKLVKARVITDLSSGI
# [19] = target: T2, Beta-galactoside alpha-2,6-sialyltransferase 1; assay: Inhibition of ST6N (unknown origin)
# [20] = Inhibition of MGDG (unknown origin)
# [21] = target: T4, CMP-N-acetylneuraminate-beta-galactosamide-alpha-2,3-sialyltransferase 1; assay: Inhibition of ST3Gal 1 (unknown origin) expressed in High Five cells; set-up: species or system BTI-TN-5B1-4
# [22] = target: Alpha-(1,3)-fucosyltransferase 4 (Homo sapiens, UniProt P22083); assay: Inhibition of FucT-4 (unknown origin)
# Alpha-(1,3)-fucosyltransferase 4, sequence (P22083 whole entry): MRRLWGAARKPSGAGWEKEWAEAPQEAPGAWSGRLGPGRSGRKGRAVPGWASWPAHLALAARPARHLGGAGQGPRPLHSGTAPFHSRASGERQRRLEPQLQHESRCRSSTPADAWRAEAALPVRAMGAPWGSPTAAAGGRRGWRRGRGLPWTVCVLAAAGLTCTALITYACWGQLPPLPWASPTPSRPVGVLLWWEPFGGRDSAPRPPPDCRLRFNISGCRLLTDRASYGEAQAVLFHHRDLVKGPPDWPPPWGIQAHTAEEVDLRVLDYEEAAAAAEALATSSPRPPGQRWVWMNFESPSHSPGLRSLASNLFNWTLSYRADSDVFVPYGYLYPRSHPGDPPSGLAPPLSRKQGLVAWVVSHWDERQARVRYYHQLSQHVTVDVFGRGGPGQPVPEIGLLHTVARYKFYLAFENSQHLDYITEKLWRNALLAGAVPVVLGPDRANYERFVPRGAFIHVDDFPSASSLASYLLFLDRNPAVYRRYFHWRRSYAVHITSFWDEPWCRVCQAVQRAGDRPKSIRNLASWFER
# [23] = target: T8, Phospho-N-acetylmuramoyl-pentapeptide-transferase/UDP-N-acetylglucosamine--N-acetylmuramyl-(pentapeptide) pyrophosphoryl-undecaprenol N-acetylglucosamine transf (Escherichia coli K-12, UniProt P0A6W3+P17443); assay: Inhibition of Escherichia coli MraY/MurG; format: protein assay
# T8 sequence (P0A6W3 whole entry): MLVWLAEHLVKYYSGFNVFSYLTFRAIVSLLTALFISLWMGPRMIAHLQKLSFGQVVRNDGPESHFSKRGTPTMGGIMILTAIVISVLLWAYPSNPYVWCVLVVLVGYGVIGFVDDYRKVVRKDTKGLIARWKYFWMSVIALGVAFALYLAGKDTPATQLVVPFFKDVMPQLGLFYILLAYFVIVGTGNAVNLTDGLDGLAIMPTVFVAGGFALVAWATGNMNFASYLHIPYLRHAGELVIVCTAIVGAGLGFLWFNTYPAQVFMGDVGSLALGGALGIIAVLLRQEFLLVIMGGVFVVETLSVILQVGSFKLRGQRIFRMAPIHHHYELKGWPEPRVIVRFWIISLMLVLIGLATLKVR
# T8 sequence (P17443 whole entry): T3 sequence (whole entry)
# Ceramide glucosyltransferase, sequence (Q16739 whole entry): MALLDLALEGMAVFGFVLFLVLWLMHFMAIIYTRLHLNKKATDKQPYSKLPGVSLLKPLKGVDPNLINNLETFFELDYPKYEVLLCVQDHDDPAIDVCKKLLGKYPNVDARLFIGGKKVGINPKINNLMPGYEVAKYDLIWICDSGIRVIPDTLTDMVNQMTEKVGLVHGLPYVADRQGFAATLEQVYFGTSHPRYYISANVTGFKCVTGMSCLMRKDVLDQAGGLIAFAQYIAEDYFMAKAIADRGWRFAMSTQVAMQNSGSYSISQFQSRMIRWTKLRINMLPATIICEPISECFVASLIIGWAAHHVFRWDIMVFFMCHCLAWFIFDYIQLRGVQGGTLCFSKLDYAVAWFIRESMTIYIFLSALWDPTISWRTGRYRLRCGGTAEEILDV
compound,measurement,setting,value
O=Cc1ccc(-c2cn([C@@H]3O[C@H](COP(=O)(O)OP(=O)(O)O[C@H]4O[C@H](CO)[C@H](O)[C@H](O)[C@H]4O)[C@@H](O)[C@H]3O)c(=O)[nH]c2=O)s1,pKi,[1],4.41
O=C(NC[C@H]1O[C@@H](n2ccc(=O)[nH]c2=O)[C@H](O)[C@@H]1O)c1cccc(CO[C@@H]2O[C@H](CO)[C@H](O)[C@H](O)[C@H]2O)n1,pIC50,[2],3.82
CCCCCCCCCC(=O)N[C@H](CN1CCCC1)[C@H](O)c1ccccc1,pIC50,[3],5.40
CC(C)CCCCCCCCCCCCc1cc(OS(=O)(=O)O)cc(OS(=O)(=O)O)c1,pIC50,[4],5.32
O=C(O)C1CC(=O)N(CC23CC4CC(CC(C4)C2)C3)/C(=N/c2ccc(Cl)cc2)S1 (stereo not given),pIC50,[5],4.52
same,pIC50,[6],4.28
O=S(=O)(O)c1cc(Nc2nc(Cl)nc(Nc3ccc(Nc4nc(Cl)nc(Nc5cc(S(=O)(=O)O)cc6cc(S(=O)(=O)O)c(/N=N/c7ccccc7S(=O)(=O)O)c(O)c56)n4)cc3)n2)c2c(O)c(/N=N/c3ccccc3S(=O)(=O)O)c(S(=O)(=O)O)cc2c1,pKi,[7],5.70
N#Cc1ccc(CSc2nc(-c3cccs3)c3c(c2C(=O)O)CCCC3)cc1,pIC50,[5],4.22
same,pIC50,[6],4.00
Nc1c(S(=O)(=O)O)cc(Nc2ccc(Nc3nc(Cl)nc(Nc4ccccc4S(=O)(=O)O)n3)c(S(=O)(=O)O)c2)c2c1C(=O)c1ccccc1C2=O [CIBACRON BLUE 3GA],pKi,[7],4.96
CC(=O)N[C@H]1[C@H](O[C@H]2[C@@H](O)[C@@H](CO)O[C@@H](OCc3ccc4ccccc4c3)[C@@H]2O)O[C@H](CO)C[C@@H]1O,pKi,[8],3.72
O=c1c(O)c(-c2ccc(O)c(O)c2)oc2ccccc12,pIC50,[9],5.12
same,pIC50,[10],5.72
CC(C)[C@@H](C)/C=C/[C@@H](C)[C@H]1CCC2=C3[C@@H](O)[C@@H]4O[C@@]45C[C@@H](OC(=O)[C@@H](N)[C@@H](OS(=O)(=O)O)C(C)C)CC[C@]5(C)[C@H]3CC[C@@]21C(=O)O,pIC50,[11],5.52
same,MIC,[12],0.2 µg/mL
CC1CCN(CN2C(=O)/C(=C\c3ccc(C(C)(C)C)cc3)SC2=S)CC1,pKi,[13],5.89
same,inhibition,[14],88%
C[C@@H]1CC[C@H]2C(C)(C)[C@H](O)CC[C@]2(C)[C@@]12Cc1c(O)cc3c(c1O2)COC3=O,pIC50,[15],4.52
same,pIC50,[16],< 3.70
same,pIC50,[17],< 3.70
same,pIC50,[18],4.30
same,pIC50,[19],5.10
CC(=O)O[C@@H]1C[C@]23C4=CC[C@@]5(C)[C@H](C(=O)O)[C@@](C)([C@H](C)C(C)C)CC[C@]5(C)[C@H]4CC[C@H]2[C@@](C)(COC3O)[C@H]1O[C@@H]1O[C@H](CO)[C@@H](O)[C@H](O)[C@H]1O (stereo not given in full) [ENFUMAFUNGIN],pIC50,[11],6.00
same,MIC,[12],0.05 µg/mL
O=C(OC[C@H](Cc1ccccc1)N(Cc1ccccc1)Cc1ccccc1)N1CCC(n2c(=O)[nH]c3ccccc32)CC1,pIC50,[20],4.92
C[C@@H]1CC[C@H]2C(C)(C)[C@H](O)[C@H](O)C[C@]2(C)[C@@]12Cc1c(O)cc3c(c1O2)COC3=O,pIC50,[15],3.77
same,pIC50,[16],< 3.70
same,pIC50,[17],< 3.70
same,pIC50,[18],3.96
same,pIC50,[19],4.73
CCCCCCCCO[C@H]1CN(CCCCCCCC)[C@H](CO)[C@@H](O)[C@@H]1O,pIC50,[3],3.79
H-GNWWWW-OH,pKi,[21],5.96
CCCCCCCCCCCCCCCc1cc(OS(=O)(=O)O)cc(OS(=O)(=O)O)c1,pIC50,[4],5.37
O=C(O[C@H]1Cc2c(O)cc(O)cc2O[C@H]1c1cc(O)c(O)c(O)c1)c1cc(O)c(O)c(O)c1,pIC50,[18],5.57
same,pIC50,[4],6.15
same,pIC50,[22],5.74
C[C@@H](COC(=O)N1CCC(n2c(=O)[nH]c3ccccc32)CC1)N(Cc1ccccc1)Cc1ccccc1,pIC50,[20],5.00
O=C(Oc1ccccc1)n1c(=O)oc2ccc(Cl)cc21,pIC50,[5],4.57
CN[C@H](CC(C)C)C(=O)N[C@H]1C(=O)N[C@@H](CC(N)=O)C(=O)N[C@H]2C(=O)N[C@H]3C(=O)N[C@H](C(=O)N[C@H](C(=O)O)c4cc(O)cc(O)c4-c4cc3ccc4O)[C@H](O)c3ccc(c(Cl)c3)Oc3cc2cc(c3O[C@@H]2O[C@H](CO)[C@@H](O)[C@H](O)[C@H]2O[C@H]2C[C@](C)(N)[C@H](O)[C@H](C)O2)Oc2ccc(cc2Cl)[C@H]1O [VANCOMYCIN],pIC50,[13],5.00
same,IC50,[23],9 µM
